In patent US20220306640A1, “HYDANTOIN DERIVATIVE” (ONO PHARMACEUTICAL CO., LTD., priority 2019, published 2022):

Assays:
[1] = target: ROCK (Homo sapiens, UniProt O75116); experiment: Evaluation of kinase selectivity: % inhibition rate of ROCK at 1 μmol/L; assay type: biochemical; details: compound at 1 μmol/L; read-out: % inhibition rate of ROCK2
Method: (§1) Biological Example 3: Evaluation of Kinase Selectivity
(§2) % inhibition rate with respect to various kinases (for example KDR etc.) of 1 μmol/L the test compound is measured.
(§3) A general assay condition (substrates, cofactor, ATP concentrations and reaction time etc.) suitable for respective kinase enzyme inhibition activity test is used.
(§4) 1 Prepare the test compounds into 1 mmol/L DMSO solution. 2 Transfer 20 nL of stock to 384 assay plate. Use DMSO as High and Low controls.
(§5) 1 Prepare the 1.3× Enzyme solution containing enzyme, substrate and cofactors. 2 Add 15 μL of 1.3× Enzyme solutions to each well and incubate the plate at room temperature for 30 min. 3 Initiate the reaction by adding 5 μL of 4×ATP solution. The final volume of each well should be 20 μL. 4 Incubate the plate at room temperature for reaction and add 75 μL of stopping buffer (containing 0.5 mol/L EDTA) to terminate the reaction.
(§6) Analyze the sample of each well using EZ reader (PerkinElmer).
(§7) Calculate the % Inhibition using read conversion ratio (CR) following the equation as below.
(§8) Use well treated with DMSO as High Control Use well without enzyme as Low Control

[2] = target: T1, DDR1 (Homo sapiens, UniProt Q08345); experiment: Measurement of DDR1 inhibitory activity (LanthaScreen system, in vitro test); assay type: binding; details: GST-DDR1, Kinase tracer 178
T1 construct: purchased Invitrogen
How it was run: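 TR-FRET tracer-displacement binding assay with GST-DDR1, Kinase tracer 178 and Eu-anti-GST antibody in HEPES pH 7.5, MgCl2, EGTA, Brij-35 buffer, 1% DMSO. Compound preincubated with enzyme 15 min at RT, then tracer/antibody 1 h at RT; 665/615 nm read. Percent inhibition versus no-enzyme and DMSO controls; IC50 from inhibition curves.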

[3] = target: T2, Flt-3 (Homo sapiens, UniProt P36888); experiment: Evaluation of kinase selectivity: % inhibition rate of Flt-3 at 1 μmol/L; assay type: biochemical; details: compound at 1 μmol/L
T2 sequence (P36888 27-993): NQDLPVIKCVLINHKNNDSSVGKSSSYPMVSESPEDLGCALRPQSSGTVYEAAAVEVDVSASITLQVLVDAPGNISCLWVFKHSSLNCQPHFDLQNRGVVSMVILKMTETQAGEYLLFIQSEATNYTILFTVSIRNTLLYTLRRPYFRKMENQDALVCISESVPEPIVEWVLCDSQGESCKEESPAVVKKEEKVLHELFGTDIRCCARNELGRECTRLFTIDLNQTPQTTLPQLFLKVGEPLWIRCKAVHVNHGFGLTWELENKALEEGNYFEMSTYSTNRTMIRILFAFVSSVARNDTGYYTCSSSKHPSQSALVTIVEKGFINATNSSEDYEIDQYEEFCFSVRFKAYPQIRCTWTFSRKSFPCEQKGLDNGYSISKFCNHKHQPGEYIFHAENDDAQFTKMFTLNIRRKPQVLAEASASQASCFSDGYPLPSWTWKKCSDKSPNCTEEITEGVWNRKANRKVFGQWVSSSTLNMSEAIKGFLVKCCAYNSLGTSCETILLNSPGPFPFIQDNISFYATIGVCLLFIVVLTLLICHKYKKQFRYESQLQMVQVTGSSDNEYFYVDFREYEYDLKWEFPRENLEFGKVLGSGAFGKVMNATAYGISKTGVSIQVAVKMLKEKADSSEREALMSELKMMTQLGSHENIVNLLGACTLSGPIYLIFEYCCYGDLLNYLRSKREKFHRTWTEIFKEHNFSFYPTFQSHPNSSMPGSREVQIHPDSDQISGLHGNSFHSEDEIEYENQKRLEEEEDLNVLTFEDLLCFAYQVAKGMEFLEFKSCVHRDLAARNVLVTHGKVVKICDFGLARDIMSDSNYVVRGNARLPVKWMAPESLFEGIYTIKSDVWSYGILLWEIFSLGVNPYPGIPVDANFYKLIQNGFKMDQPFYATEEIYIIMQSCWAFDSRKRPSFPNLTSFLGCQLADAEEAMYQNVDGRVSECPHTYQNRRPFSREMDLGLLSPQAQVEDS
Method: as §1, §2, §3, §4, §5, §6, §7, §8

[4] = target: KDR (Homo sapiens, UniProt P35968); experiment: Evaluation of kinase selectivity: % inhibition rate of KDR at 1 μmol/L; assay type: biochemical; details: compound at 1 μmol/L
Method: as §1, §2, §3, §4, §5, §6, §7, §8

T1 sequence (Q08345 19-913): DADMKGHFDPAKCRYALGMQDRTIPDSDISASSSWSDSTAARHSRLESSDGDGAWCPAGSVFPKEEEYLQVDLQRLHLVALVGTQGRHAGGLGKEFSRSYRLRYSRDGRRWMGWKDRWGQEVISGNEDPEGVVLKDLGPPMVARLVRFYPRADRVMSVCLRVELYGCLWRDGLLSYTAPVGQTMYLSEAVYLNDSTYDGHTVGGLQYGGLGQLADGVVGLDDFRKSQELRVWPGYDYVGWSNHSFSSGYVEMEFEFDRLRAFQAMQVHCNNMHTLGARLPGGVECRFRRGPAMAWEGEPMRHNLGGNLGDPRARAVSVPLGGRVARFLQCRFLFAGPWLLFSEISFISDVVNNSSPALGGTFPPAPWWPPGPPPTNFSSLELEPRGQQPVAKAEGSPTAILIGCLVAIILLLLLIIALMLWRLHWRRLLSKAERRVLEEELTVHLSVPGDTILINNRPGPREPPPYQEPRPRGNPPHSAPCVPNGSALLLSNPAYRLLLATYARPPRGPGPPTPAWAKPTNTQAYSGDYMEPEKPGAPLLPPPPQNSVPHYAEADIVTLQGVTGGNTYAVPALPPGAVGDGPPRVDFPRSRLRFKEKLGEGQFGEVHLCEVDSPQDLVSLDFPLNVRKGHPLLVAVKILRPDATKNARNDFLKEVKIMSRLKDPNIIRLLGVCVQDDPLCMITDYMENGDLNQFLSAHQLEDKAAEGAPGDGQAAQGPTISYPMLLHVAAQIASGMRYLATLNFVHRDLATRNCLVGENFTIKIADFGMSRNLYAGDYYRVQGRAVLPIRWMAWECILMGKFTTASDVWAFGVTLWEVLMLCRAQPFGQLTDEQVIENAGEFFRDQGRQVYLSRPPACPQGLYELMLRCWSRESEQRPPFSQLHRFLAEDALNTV
Chain of KDR (P35968 20-1356, species assumed): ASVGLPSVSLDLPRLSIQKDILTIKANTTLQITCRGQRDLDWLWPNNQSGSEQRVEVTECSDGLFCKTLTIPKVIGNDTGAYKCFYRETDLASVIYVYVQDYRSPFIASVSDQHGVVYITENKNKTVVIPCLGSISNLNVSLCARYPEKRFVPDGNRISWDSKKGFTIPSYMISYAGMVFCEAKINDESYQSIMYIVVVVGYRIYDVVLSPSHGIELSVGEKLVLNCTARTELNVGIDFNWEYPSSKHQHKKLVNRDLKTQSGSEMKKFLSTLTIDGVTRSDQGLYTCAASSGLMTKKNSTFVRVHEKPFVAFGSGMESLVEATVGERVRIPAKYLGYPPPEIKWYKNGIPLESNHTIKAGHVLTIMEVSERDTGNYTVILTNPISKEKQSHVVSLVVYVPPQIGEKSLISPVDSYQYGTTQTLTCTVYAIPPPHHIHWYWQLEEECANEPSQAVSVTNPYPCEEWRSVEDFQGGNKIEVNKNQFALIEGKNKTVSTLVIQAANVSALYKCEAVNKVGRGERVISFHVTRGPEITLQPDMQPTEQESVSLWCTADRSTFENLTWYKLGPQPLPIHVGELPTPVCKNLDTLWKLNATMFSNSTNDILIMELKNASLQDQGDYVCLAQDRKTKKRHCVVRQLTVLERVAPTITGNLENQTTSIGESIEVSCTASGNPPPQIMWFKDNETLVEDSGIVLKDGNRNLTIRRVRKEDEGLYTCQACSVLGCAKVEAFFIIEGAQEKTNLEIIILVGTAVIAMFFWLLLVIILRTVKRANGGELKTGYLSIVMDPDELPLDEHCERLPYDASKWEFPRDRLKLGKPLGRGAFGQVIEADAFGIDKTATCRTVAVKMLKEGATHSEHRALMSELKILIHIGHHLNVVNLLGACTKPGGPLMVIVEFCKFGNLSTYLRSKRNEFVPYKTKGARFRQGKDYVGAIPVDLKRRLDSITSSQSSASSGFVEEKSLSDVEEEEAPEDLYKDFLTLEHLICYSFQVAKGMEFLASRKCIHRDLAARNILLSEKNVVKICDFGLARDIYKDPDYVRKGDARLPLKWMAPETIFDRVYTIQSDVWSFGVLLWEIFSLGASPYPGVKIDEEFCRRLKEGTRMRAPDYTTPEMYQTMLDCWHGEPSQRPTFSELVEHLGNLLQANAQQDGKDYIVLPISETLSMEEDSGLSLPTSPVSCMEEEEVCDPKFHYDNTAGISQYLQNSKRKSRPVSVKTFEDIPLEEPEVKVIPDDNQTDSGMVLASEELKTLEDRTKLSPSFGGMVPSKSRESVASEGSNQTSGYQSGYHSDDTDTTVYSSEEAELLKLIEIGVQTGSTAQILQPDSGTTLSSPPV
Chain of ROCK (O75116 whole entry): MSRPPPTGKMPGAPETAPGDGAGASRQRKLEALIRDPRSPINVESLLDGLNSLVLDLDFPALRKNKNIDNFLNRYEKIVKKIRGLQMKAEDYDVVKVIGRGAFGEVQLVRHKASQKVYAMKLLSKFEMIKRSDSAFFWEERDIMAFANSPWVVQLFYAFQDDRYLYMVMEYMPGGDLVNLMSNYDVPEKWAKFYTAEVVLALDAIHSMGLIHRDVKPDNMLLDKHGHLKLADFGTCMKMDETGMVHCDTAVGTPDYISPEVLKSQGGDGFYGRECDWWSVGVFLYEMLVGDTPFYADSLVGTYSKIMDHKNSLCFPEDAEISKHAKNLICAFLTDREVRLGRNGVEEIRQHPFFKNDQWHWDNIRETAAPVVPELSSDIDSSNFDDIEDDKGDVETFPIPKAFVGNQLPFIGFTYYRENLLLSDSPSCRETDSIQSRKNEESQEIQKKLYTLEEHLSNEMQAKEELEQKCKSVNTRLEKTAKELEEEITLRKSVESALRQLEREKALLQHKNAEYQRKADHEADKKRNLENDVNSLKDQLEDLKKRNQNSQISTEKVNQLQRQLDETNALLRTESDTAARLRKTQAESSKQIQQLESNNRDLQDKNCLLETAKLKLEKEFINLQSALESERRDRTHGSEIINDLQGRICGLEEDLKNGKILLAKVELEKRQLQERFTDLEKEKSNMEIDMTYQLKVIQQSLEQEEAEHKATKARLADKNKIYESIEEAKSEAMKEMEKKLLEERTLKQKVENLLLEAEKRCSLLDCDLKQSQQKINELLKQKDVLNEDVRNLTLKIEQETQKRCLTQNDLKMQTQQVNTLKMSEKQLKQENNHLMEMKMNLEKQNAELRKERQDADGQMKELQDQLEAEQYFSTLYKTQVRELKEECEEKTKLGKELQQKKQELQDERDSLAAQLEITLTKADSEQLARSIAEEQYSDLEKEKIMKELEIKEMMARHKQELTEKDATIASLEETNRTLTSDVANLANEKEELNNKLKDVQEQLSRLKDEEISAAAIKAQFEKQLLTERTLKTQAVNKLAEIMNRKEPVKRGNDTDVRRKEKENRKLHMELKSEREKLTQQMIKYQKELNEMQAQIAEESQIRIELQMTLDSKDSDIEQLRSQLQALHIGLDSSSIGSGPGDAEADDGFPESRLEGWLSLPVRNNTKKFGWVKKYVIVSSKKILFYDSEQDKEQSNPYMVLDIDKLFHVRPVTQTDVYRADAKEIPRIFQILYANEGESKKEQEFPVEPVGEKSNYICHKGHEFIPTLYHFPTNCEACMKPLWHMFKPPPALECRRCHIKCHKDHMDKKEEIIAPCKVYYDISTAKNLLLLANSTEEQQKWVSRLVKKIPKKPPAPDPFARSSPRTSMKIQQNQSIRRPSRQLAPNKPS

- inhibition at 1 µM [1]: -2%
- IC50 [2]: 1 nM
- inhibition at 1 µM [3]: 6%
- inhibition at 1 µM [4]: 4%
Structure (SMILES): Cc1cc(Oc2ccnc(N)n2)ccc1N1C(=O)CN(c2ccc(F)c(OC(F)(F)F)c2)C1=O [Example 3(110), 3-{4-[(2-amino-4-pyrimidinyl)oxy]-2-methylphenyl}-1-[4-fluoro-3-(trifluoromethoxy)phenyl]-2,4-imidazolidinedione]
